Data as given in patent US9351965B2, “Indazole derivatives useful as ERK inhibitors” (Merck Sharp & Dohme Corp., priority 2010, dated 2016).

Target: fully phosphorylated, active Mouse ERK2 protein (Mus musculus (Mouse), UniProt P63085)
Test: Active ERK2 (aERK) IMAP assay
Type: biochemical
Conditions: IMAP fluorescence polarization; 30 μM ATP; 30 minute pre-incubation
Method: 14 μl of kinase buffer (10 mM Tris.HCl pH 7.2, 10 mM MgCl2, 0.01% Tween-20, 1 mM DTT) containing 0.4 ng unphosphorylated Mouse ERK2 protein was added to each well of a black 384-well assay plate. […] DMSO concentration during initial incubation is 6.7%. […] DMSO concentration during ERK activation was 4%. After one hour, reactions were terminated by addition of 60 μl IMAP detections beads in binding buffer (Molecular Devices). Binding was allowed to equilibrate for 30 minutes before reading the plate on an LJL Analyst Fluorescence Polarization plate reader.
Active ERK2 (aERK) Assay:
Activated ERK2 activity was also determined in the IMAP assay format using the procedure outlined above. […] Reactions proceeded for 30 minutes before termination by addition of 60 μl IMAP detection beads in binding buffer. Plates were read as above after 30 minute binding equilibration.

fully phosphorylated, active Mouse ERK2 protein, sequence (P63085 whole entry): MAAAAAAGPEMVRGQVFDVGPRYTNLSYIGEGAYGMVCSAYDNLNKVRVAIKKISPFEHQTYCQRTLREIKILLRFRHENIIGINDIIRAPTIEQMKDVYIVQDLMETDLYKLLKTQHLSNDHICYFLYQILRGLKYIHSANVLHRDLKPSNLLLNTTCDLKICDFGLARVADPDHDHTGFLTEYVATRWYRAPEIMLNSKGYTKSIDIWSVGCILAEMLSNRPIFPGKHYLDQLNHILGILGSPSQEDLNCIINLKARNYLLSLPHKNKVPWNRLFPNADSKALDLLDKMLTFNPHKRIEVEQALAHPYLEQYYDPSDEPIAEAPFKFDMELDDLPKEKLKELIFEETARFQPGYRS

SMILES	IC50 [nM]
Cc1cc(-c2n[nH]c3ccc(C(=O)NC4CCCC(Cn5ncc6ccccc65)C4)cc23)ccn1 (stereo not drawn) [compound 123, N-[3-(1H-indazol-1-ylmethyl)cyclohexyl]-3-(2-methyl-4-pyridinyl)-1H-indazole-5-carboxamide]	10.7
Cc1cc(-c2n[nH]c3ccc(C(=O)NC4CCCC(Cn5ncc6cccc(F)c65)C4)cc23)ccn1 (mixture of isomers) [compound 126, N-[cis/trans-3-[(7-fluoro-1H-indazol-1-yl)methyl]cyclohexyl]-3-(2-methyl-4-pyridinyl)-1H-indazole-5-carboxamide]	56.6
Cc1cc(-c2n[nH]c3ccc(C(=O)N[C@H]4CCC[C@@](O)(Cn5ncc6cccc(F)c65)C4)cc23)ccn1 (relative stereo) [compound 104, N-[trans-3-[(7-fluoro-1H-indazol-1-yl)methyl]-3-hydroxycyclohexyl]-3-(2-methyl-4-pyridinyl)-1H-indazole-5-carboxamide]	74.3
Cc1cc(-c2n[nH]c3ccc(C(=O)N[C@@H]4CCC[C@@](O)(Cn5c(C(F)(F)F)nc6ccccc65)C4)cc23)ccn1 [compound 68]	821
Cc1cc(-c2n[nH]c3ccc(C(=O)NC4CCCC(Cn5ncc6ccncc65)C4)cc23)ccn1 (stereo not drawn) [compound 115, 3-(2-methyl-4-pyridinyl)-N-[3-(1H-pyrazolo[3,4-c]pyridin-1-ylmethyl)cyclohexyl]-1H-indazole-5-carboxamide]	33.8
Cc1nc2ccc(-c3n[nH]c4ccc(C(=O)N[C@@H]5CCC[C@](O)(Cc6ccccc6F)C5)cc34)cc2s1 [compound 13, N-[3(S)-[(2-fluorophenyl)methyl]-3-hydroxy-1(R)-cyclohexyl]-3-(2-methyl-6-benzothiazolyl)-1H-indazole-5-carboxamide]	19.9
Cc1cc(-c2n[nH]c3ccc(C(=O)N[C@@H]4CCC[C@@](O)(CN5C(=O)Cc6ccccc65)C4)cc23)ccn1 (relative stereo) [compound 92, N-[cis-3-[(2,3-dihydro-2-oxo-1H-indol-1-yl)methyl]-3-hydroxycyclohexyl]-3-(2-methyl-4-pyridinyl)-1H-indazole-5-carboxamide]	10.8
Cc1nc2ccc(-c3n[nH]c4ccc(C(=O)N[C@@H]5CCC[C@](O)(Cc6ccccc6F)C5)cc34)cn2n1 [compound 12, N-[3(S)-[(2-fluorophenyl)methyl]-3-hydroxy-1(R)-cyclohexyl]-3-(2-methyl[1,2,4]triazolo[1,5-a]pyridin-6-yl)-1H-indazole-5-carboxamide]	14.4
Cc1cc(-c2n[nH]c3ccc(C(=O)NN4CCCC4CCc4ccccc4)cc23)ccn1 (stereo not drawn) [compound 145, 3-(2-methyl-4-pyridinyl)-N-[2-(2-phenylethyl)-1-pynolidinyl]-1H-indazole-5-carboxamide]	28.7
Cc1cc(-c2n[nH]c3ccc(C(=O)NC4CCCC(Cc5ccccc5F)(NC=O)C4)cc23)ccn1 (stereo not drawn) [compound 153, N-[3-[(2-fluorophenyl)methyl]-3-(formylamino)cyclohexyl]-3-(2-methyl-4-pyridinyl)-1H-indazole-5-carboxamide]	162
O=C(N[C@@H]1CCC[C@@](O)(Cn2ncc3ncccc32)C1)c1ccc2[nH]nc(-c3ccc4nccn4c3)c2c1 [compound 86, N-[cis-3-hydroxy-3-(1H-pyrazolo[4,3-b]pyridN-1-ylmethyl)cyclohexyl]-3-imidazo[1,2-a]pyridiN-6-yl-1H-indazole-5-carboxamide]	1000
Cc1cc(-c2n[nH]c3ccc(C(=O)NC4CCCC(O)(Cc5ccccc5F)C4)cc23)ccn1 (single isomer, unassigned) [compound 1, N-[3-[(2-fluorophenyl)methyl]-3-hydroxycyclo-hexyl]-3-(2-methyl-4-pyridinyl)-1H-indazole-5-carboxamide]	589
Cc1cc(-c2n[nH]c3ccc(C(=O)N[C@@H]4CCC[C@](O)(Cn5cc6cccnc6n5)C4)cc23)ccn1 (relative stereo) [compound 73, N-[trans-3-hydroxy-3-(2H-pyrazolo[3,4-b]pyridin-2-ylmethyl)cyclohexyl]-3-(2-methyl-4-pyridinyl)-1H-indazole-5-carboxamide]	616
Cc1cc(-c2n[nH]c3ccc(C(=O)NC4CCCC(O)(C(=O)c5ccccc5)C4)cc23)ccn1 (stereo not drawn) [compound 47, N-(3-benzoyl-3-hydroxycyclohexyl)-3-(2-methyl-4-pyridinyl)-1H-indazole-5-carboxamide]	577
Cc1cc(-c2n[nH]c3ccc(C(=O)NC4CCCC(Cc5ccc(F)cc5)(C(=O)O)C4)cc23)ccn1 (stereo not drawn) [compound 136, 1-[(4-fluorophenyl)methyl]-3-[[[3-(2-methyl-4-pyridinyl)-1H-indazol-5-yl]carbonyl]amino]cyclo-hexanecarboxylic acid]	302
Cc1cc(-c2n[nH]c3ccc(C(=O)NN4CCCC(CO)(Oc5cc(F)ccc5F)C4)cc23)ccn1 (stereo not drawn) [compound 147, N-[3-(2,5-difluorophenoxy)-3-(hydroxymethyl)-1-piperidinyl]-3-(2-methyl-4-pyridinyl)-1H-indazole-5-carboxamide]	388
Cc1cc(-c2n[nH]c3ccc(C(=O)NC4CCCC(CO)(Cc5ccccc5)C4)cc23)ccn1 (stereo not drawn) [compound 132, N-[3-(hydroxymethyl)-3-(phenylmethyl)cyclohexyl]-3-(2-methyl-4-pyridinyl)-1H-indazole-5-carboxamide]	223
Cc1cc(-c2n[nH]c3ccc(C(=O)NC4CCCC(O)(C(O)c5ccccc5)C4)cc23)ccn1 (stereo not drawn) [compound 49, N-[3-hydroxy-3-(hydroxyphenylmethyl)cyclohex-yl]-3-(2-methyl-4-pyridinyl)-1H-indazole-5-carboxamide (diasterimer 1)]	25
Cc1cc(-c2n[nH]c3ccc(C(=O)N[C@@H]4CCC[C@](O)(Cn5ncccc5=O)C4)cc23)ccn1 (relative stereo) [compound 83, N-[trans-3-hydroxy-3-[(6-oxo-1(6h)-pyridazinyl)methyl]cyclohex-yl]-3-(2-methyl-4-pyridinyl)-1H-indazole-5-carboxamide]	1000
Cc1cc(-c2n[nH]c3ccc(C(=O)NC4CCCC(O)(C(F)(F)c5ccccc5)C4)cc23)ccn1 (stereo not drawn) [compound 48, N-[3-(difluorophenylmethyl)-3-hydroxycyclohexyl]-3-(2-methyl-4-pyridinyl)-1H-indazole-5-carboxamide]	106
Cc1cc(-c2n[nH]c3ccc(C(=O)N[C@@H]4CCC[C@](O)(Cn5cc6ccccc6n5)C4)cc23)ccn1 (relative stereo) [compound 90, N-[trans-3-hydroxy-3-(2H-indazol-2-ylmethyl)cyclohexyl]-3-(2-methyl-4-pyridinyl)-1H-indazole-5-carboxamide]	27.4
Cc1cc(-c2n[nH]c3ccc(C(=O)NC4CCCC(Oc5cccc(F)c5)(C(N)=O)C4)cc23)ccn1 (stereo not drawn) [compound 42, N-[3-(aminocarbonyl)-3-(3-fluorophenoxy)cyclohexyl]-3-(2-methyl-4-pyridinyl)-1H-indazole-5-carboxamide]	11.2
Cc1cc(-c2n[nH]c3ccc(C(=O)NC4CCCC(CO)(Oc5cccc(F)c5)C4)cc23)ccn1 (single isomer, unassigned) [compound 44, N-[3-(3-fluorophenoxy)-3-(hydroxymethyl)cyclohexyl]-3-(2-methyl-4-pyridinyl)-1H-indazole-5-carboxamide]	214
Cc1cc(-c2n[nH]c3ccc(C(=O)N[C@@H]4CCC[C@@](O)(Cn5ncc6ccccc65)C4)cc23)ccn1 [compound 66, N-[3(S)-hydroxy-3-(1H-indazol-1-ylmethyl)-1(R)-cyclohexyl]-3-(2-methyl-4-pyridinyl)-1H-indazole-5-carboxamide]	7
Cc1cc(-c2n[nH]c3ccc(C(=O)NC4CCCC(Oc5c(C)cccc5C)C4)cc23)ccn1 (stereo not drawn) [compound 31, N-[3-(2,6-dimethylphenoxy)cyclohexyl]-3-(2-methyl-4-pyridinyl)-1H-indazole-5-carboxamide]	469
Cc1cc(-c2n[nH]c3ccc(C(=O)NC4CCCC(O)(C(F)(F)c5ccccc5)C4)cc23)ccn1 (stereo not drawn) [compound 46, N-[3-(difluorophenylmethyl)-3-hydroxycyclohexyl]-3-(2-methyl-4-pyridinyl)-1H-indazole-5-carboxamide]	630
O=C(NC1CCCC(O)(Cc2ccccc2F)C1)c1ccc2[nH]nc(-c3ccc4ncsc4c3)c2c1 (single isomer, unassigned) [compound 10, 3-(6-benzothiazolyl)-N-[3-[(2-fluorophenyl)methyl]-3-hydroxycyclohexyl]-1H-indazole-5-carboxamide]	1000
Cc1cc(-c2n[nH]c3ccc(C(=O)NC4CCCC(Cn5cc6ccccc6n5)C4)cc23)ccn1 (stereo not drawn) [compound 122, N-[3-(2H-indazol-2-ylmethyl)cyclohexyl]-3-(2-methyl-4-pyridinyl)-1H-indazole-5-carboxamide]	14.3
Cc1cc(-c2n[nH]c3ccc(C(=O)N[C@H]4CCC[C@@](O)(Cn5ncc6cc(F)ccc65)C4)cc23)ccn1 (relative stereo) [compound 98, N-[trans-3-[(5-fluoro-1H-indazol-1-yl)methyl]-3-hydroxycyclohexyl]-3-(2-methyl-4-pyridinyl)-1H-indazole-5-carboxamide]	1000
Cc1cc(-c2n[nH]c3ccc(C(=O)N[C@@H]4CCC[C@](O)(CN5C(=O)Cc6ccccc65)C4)cc23)ccn1 (relative stereo) [compound 88, N-[trans-3-[(2,3-dihydro-2-oxo-1H-indol-1-yl)methyl]-3-hydroxycyclohexyl]-3-(2-methyl-4-pyridinyl)-1H-indazole-5-carboxamide]	497
